ChEMBL document CHEMBL4402573, “Discovery and Optimization of α-Mangostin Derivatives as Novel PDE4 Inhibitors for the Treatment of Vascular Dementia” (J Med Chem, 2020)
Activity calls are given as the source filed them. No cut-off for these calls is given here.

How the values were obtained:
[1] = Stability in rat liver microsomes assessed as half life at 0.5 uM; format: ADME, Microsome
[2] = biological target: Voltage-gated inwardly rectifying potassium channel KCNH2 (Homo sapiens, UniProt Q12809); assay: Inhibition of human ERG expressed in CHO cells by automated patch clamp electrophysiology; format: cell-based
[3] = system: Mus musculus; assay: Anti-VaD activity against UCCAO-induced spatial memory deficient C57BL/6J mouse model assessed as improvement in spatial learning and memory by measuring increase in frequency of platform area crossings at 10 mg/kg, po administered for 21 days by Morris water maze test; format: functional, organism-based
[4] = Tmax in Sprague-Dawley rat at 2.5 mg/kg, iv measured upto 24 hrs by LC-MS/MS analysis; format: ADME, organism-based; conditions: in vivo
[5] = Inhibition of human PDE4D7 (1 to 748 residues) expressed in Escherichia coli BL21 codon-plus cells using [3H]cAMP as substrate incubated for 15 mins by liquid scintillation counting method
[6] = biological target: Dual specificity calcium/calmodulin-dependent 3',5'-cyclic nucleotide phosphodiesterase 1B (Homo sapiens, UniProt Q01064); assay: Inhibition of human PDE1B (10 to 487 residues) expressed in Escherichia coli BL21 codon-plus cells using [3H]cAMP as substrate incubated for 15 mins by liquid scintillation counting method
[7] = biological target: cGMP-dependent 3',5'-cyclic phosphodiesterase (Homo sapiens, UniProt O00408); assay: Inhibition of human PDE2A (580 to 919 residues) expressed in Escherichia coli BL21 codon-plus cells using [3H]cGMP as substrate incubated for 15 mins by liquid scintillation counting method
[8] = biological target: cGMP-inhibited 3',5'-cyclic phosphodiesterase 3A (Homo sapiens, UniProt Q14432); assay: Inhibition of human PDE3A (679 to 1087 residues) expressed in Escherichia coli BL21 codon-plus cells using [3H]cAMP as substrate incubated for 15 mins by liquid scintillation counting method
[9] = biological target: High affinity 3',5'-cyclic-AMP phosphodiesterase 7A (Homo sapiens, UniProt Q13946); assay: Inhibition of human PDE7A1 (130 to 482 residues) expressed in Escherichia coli BL21 codon-plus cells using [3H]cAMP as substrate incubated for 15 mins by liquid scintillation counting method
[10] = biological target: High affinity cAMP-specific and IBMX-insensitive 3',5'-cyclic phosphodiesterase 8A (Homo sapiens, UniProt O60658); assay: Inhibition of human PDE8A1 (480 to 820 residues) expressed in Escherichia coli BL21 codon-plus cells using [3H]cAMP as substrate incubated for 15 mins by liquid scintillation counting method
[11] = biological target: High affinity cGMP-specific 3',5'-cyclic phosphodiesterase 9A (Homo sapiens, UniProt O76083); assay: Inhibition of human PDE9A2 (181 to 506 residues) expressed in Escherichia coli BL21 codon-plus cells using [3H]cGMP as substrate incubated for 15 mins by liquid scintillation counting method
[12] = biological target: cAMP and cAMP-inhibited cGMP 3',5'-cyclic phosphodiesterase 10A (Homo sapiens, UniProt Q9Y233); assay: Inhibition of human PDE10A2 (449 to 770 residues) expressed in Escherichia coli BL21 codon-plus cells using [3H]cAMP as substrate incubated for 15 mins followed by substrate addition by liquid scintillation counting method
[13] = organism: Homo sapiens; assay: Selectivity index, ratio of IC50 for human PDE1B (10 to 487 residues) expressed in Escherichia coli BL21 codon-plus cells to IC50 for human PDE4D2 (86 to 413 residues) expressed in Escherichia coli BL21 codon-plus cells
[14] = organism: Homo sapiens; assay: Selectivity index, ratio of IC50 for human PDE2A (580 to 919 residues) expressed in Escherichia coli BL21 codon-plus cells to IC50 for human PDE4D2 (86 to 413 residues) expressed in Escherichia coli BL21 codon-plus cells
[15] = organism: Homo sapiens; assay: Selectivity index, ratio of IC50 for human PDE3A (679 to 1087 residues) expressed in Escherichia coli BL21 codon-plus cells to IC50 for human PDE4D2 (86 to 413 residues) expressed in Escherichia coli BL21 codon-plus cells
[16] = organism: Homo sapiens; assay: Selectivity index, ratio of IC50 for human PDE5A1 (535 to 860 residues) expressed in Escherichia coli BL21 codon-plus cells to IC50 for human PDE4D2 (86 to 413 residues) expressed in Escherichia coli BL21 codon-plus cells
[17] = organism: Homo sapiens; assay: Selectivity index, ratio of IC50 for human PDE7A1 (130 to 482 residues) expressed in Escherichia coli BL21 codon-plus cells to IC50 for human PDE4D2 (86 to 413 residues) expressed in Escherichia coli BL21 codon-plus cells
[18] = organism: Homo sapiens; assay: Selectivity index, ratio of IC50 for human PDE10A2 (449 to 770 residues) expressed in Escherichia coli BL21 codon-plus cells to IC50 for human PDE4D2 (86 to 413 residues) expressed in Escherichia coli BL21 codon-plus cells
[19] = Toxicity in Beagle dog assessed as animals exhibiting emesis at 5 mg/kg, po observed for 180 mins; format: organism-based, Canis lupus familiaris; conditions: in vivo, 3 h
[20] = AUC(0 to infinity) in Sprague-Dawley rat at 2.5 mg/kg, iv measured upto 24 hrs by LC-MS/MS analysis; format: ADME, organism-based; design: dose 2.5 mg/kg, route intravenous, time infinity; conditions: in vivo
[21] = Tmax in Sprague-Dawley rat at 5 mg/kg, po measured upto 24 hrs by LC-MS/MS analysis; format: ADME, organism-based; conditions: in vivo
[22] = Cmax in Sprague-Dawley rat at 5 mg/kg, po measured upto 24 hrs by LC-MS/MS analysis; format: ADME, organism-based; design: dose 5 mg/kg, route oral; conditions: in vivo
[23] = AUC(0 to t) in Sprague-Dawley rat at 5 mg/kg, po measured upto 24 hrs by LC-MS/MS analysis; format: ADME, organism-based; design: dose 5 mg/kg, time < 24 hr, route oral; conditions: in vivo
[24] = biological target: Cytochrome P450 1A2 (Homo sapiens, UniProt P05177); assay: Inhibition of human CYP1A2; format: ADME
[25] = biological target: Cytochrome P450 3A4 (Homo sapiens, UniProt P08684); assay: Inhibition of human CYP3A4; format: ADME
[26] = Protein binding in rat plasma at 1 uM by LC-MS/MS analysis; format: ADME, cell-free; conditions: read-out: PPB
[27] = system: Mus musculus; assay: Anti-VaD activity against UCCAO-induced spatial memory deficient C57BL/6J mouse model assessed as improvement in spatial learning and memory by measuring increase in residence time on the platform at 10 mg/kg, po administered for 21 days by Morris water maze test; format: functional, organism-based
[28] = system: Mus musculus; assay: Anti-VaD activity against UCCAO-induced spatial memory deficient C57BL/6J mouse model assessed as improvement in spatial learning and memory by measuring increase in latency time at 10 mg/kg, po administered for 21 days by passive avoidance test; format: functional, organism-based
[29] = system: Mus musculus; assay: Anti-VaD activity against UCCAO-induced spatial memory deficient C57BL/6J mouse model assessed as improvement in spatial learning and memory by measuring decrease in error time at 10 mg/kg, po administered for 21 days by passive avoidance test; format: functional, organism-based
[30] = biological target: 3',5'-cyclic-AMP phosphodiesterase 4B (Homo sapiens, UniProt Q07343); assay: Partial inhibition of human PDE4B1 (1 to 736 residues) expressed in Escherichia coli BL21 codon-plus cells using [3H]cAMP as substrate incubated with compound at high concentrations for 15 mins by liquid scintillation counting method relative to control
Chain of 3',5'-cyclic-AMP phosphodiesterase 4B (Q07343 whole entry, the tested form may be a part): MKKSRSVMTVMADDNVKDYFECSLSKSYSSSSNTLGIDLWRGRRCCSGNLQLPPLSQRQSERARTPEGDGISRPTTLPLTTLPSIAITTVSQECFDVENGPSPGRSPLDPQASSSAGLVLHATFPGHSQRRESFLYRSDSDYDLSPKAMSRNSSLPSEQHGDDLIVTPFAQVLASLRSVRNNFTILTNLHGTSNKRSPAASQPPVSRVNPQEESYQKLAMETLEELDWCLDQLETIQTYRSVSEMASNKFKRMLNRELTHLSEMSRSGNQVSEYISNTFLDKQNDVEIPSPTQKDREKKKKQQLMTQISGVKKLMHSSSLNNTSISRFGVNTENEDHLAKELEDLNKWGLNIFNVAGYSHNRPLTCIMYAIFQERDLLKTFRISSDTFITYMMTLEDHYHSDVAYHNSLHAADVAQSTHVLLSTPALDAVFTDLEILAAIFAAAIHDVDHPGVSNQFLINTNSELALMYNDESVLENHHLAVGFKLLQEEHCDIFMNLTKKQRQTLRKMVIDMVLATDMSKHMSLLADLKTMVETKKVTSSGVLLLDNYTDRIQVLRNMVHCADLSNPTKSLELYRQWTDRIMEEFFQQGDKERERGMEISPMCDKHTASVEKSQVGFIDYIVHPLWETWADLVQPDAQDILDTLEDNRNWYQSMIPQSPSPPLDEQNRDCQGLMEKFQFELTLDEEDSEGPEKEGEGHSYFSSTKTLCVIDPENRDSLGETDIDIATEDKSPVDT

Chain of Cytochrome P450 3A4 (P08684 whole entry): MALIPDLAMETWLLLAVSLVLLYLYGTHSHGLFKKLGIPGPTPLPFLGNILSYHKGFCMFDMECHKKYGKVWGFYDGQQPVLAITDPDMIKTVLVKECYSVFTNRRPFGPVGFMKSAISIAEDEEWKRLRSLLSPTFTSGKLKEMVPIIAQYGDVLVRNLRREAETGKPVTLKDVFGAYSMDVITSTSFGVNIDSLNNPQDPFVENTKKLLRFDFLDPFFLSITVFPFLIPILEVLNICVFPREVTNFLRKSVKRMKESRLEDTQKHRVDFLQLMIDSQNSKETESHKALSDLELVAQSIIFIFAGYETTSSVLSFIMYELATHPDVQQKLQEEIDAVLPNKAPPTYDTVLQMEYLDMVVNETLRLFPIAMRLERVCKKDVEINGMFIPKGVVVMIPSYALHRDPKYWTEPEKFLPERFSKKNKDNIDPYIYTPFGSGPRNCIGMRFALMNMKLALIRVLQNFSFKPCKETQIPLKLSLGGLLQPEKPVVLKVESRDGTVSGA
Chain of High affinity cAMP-specific and IBMX-insensitive 3',5'-cyclic phosphodiesterase 8A (O60658 whole entry, the tested form may be a part): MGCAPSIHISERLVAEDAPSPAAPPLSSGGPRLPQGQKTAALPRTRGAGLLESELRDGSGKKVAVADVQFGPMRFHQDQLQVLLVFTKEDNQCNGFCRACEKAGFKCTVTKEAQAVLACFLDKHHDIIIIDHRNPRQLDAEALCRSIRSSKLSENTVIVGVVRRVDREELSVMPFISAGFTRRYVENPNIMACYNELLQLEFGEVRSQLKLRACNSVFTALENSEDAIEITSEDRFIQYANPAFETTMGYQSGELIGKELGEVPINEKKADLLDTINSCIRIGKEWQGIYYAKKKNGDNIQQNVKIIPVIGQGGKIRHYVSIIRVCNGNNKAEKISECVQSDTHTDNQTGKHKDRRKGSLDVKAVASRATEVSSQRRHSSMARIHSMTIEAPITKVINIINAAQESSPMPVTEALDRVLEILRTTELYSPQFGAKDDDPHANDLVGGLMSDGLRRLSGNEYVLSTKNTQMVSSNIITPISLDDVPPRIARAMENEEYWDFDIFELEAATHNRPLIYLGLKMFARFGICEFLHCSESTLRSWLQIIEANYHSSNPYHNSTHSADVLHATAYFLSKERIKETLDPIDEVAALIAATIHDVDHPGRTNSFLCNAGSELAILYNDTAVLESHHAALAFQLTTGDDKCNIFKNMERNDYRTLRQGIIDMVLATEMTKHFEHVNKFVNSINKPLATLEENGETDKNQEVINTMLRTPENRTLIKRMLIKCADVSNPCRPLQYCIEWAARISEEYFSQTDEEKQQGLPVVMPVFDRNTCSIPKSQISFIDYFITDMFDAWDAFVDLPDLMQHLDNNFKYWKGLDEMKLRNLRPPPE
Chain of High affinity cGMP-specific 3',5'-cyclic phosphodiesterase 9A (O76083 whole entry, the tested form may be a part): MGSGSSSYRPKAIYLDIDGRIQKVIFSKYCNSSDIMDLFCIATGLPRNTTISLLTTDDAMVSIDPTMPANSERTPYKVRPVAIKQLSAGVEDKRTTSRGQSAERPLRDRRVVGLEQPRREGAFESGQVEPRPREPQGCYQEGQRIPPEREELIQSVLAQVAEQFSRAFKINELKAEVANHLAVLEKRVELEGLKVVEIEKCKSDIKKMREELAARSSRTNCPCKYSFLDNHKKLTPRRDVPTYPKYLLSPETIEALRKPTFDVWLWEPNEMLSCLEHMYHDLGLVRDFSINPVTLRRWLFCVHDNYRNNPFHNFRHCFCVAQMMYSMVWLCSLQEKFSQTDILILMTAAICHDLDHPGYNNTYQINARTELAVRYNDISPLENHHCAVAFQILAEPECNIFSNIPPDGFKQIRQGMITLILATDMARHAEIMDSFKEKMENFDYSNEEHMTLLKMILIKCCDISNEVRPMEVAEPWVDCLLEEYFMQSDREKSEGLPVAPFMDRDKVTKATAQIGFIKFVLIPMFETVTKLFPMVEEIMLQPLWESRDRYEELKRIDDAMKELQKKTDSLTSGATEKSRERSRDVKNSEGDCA
Chain of High affinity 3',5'-cyclic-AMP phosphodiesterase 7A (Q13946 whole entry, the tested form may be a part): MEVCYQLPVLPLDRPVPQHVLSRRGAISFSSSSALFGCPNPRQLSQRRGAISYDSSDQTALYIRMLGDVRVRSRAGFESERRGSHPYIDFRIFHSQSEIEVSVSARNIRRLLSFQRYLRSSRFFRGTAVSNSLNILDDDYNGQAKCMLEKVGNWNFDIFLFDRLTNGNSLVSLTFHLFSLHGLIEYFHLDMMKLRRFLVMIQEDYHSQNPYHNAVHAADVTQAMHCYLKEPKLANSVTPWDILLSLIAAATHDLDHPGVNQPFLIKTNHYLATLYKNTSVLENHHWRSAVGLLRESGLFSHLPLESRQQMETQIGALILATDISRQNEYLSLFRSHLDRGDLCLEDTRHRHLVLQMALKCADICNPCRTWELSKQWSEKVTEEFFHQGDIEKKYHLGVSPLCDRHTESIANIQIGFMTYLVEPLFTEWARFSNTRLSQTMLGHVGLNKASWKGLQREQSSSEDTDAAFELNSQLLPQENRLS
Chain of Cytochrome P450 1A2 (P05177 whole entry): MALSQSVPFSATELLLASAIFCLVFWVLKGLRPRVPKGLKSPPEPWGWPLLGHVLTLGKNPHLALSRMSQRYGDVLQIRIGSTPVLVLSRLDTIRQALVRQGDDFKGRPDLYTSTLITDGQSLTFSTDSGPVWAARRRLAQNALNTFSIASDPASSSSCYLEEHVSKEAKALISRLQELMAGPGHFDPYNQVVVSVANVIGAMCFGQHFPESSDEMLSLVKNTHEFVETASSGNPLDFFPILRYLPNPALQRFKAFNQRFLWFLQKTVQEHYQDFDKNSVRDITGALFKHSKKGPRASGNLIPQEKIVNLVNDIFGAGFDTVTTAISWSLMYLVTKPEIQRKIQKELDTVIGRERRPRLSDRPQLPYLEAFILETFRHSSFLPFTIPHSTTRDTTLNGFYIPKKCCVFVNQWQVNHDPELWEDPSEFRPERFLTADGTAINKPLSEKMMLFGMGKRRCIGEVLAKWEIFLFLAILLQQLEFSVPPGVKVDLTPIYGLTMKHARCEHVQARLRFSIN
Chain of Voltage-gated inwardly rectifying potassium channel KCNH2 (Q12809 whole entry): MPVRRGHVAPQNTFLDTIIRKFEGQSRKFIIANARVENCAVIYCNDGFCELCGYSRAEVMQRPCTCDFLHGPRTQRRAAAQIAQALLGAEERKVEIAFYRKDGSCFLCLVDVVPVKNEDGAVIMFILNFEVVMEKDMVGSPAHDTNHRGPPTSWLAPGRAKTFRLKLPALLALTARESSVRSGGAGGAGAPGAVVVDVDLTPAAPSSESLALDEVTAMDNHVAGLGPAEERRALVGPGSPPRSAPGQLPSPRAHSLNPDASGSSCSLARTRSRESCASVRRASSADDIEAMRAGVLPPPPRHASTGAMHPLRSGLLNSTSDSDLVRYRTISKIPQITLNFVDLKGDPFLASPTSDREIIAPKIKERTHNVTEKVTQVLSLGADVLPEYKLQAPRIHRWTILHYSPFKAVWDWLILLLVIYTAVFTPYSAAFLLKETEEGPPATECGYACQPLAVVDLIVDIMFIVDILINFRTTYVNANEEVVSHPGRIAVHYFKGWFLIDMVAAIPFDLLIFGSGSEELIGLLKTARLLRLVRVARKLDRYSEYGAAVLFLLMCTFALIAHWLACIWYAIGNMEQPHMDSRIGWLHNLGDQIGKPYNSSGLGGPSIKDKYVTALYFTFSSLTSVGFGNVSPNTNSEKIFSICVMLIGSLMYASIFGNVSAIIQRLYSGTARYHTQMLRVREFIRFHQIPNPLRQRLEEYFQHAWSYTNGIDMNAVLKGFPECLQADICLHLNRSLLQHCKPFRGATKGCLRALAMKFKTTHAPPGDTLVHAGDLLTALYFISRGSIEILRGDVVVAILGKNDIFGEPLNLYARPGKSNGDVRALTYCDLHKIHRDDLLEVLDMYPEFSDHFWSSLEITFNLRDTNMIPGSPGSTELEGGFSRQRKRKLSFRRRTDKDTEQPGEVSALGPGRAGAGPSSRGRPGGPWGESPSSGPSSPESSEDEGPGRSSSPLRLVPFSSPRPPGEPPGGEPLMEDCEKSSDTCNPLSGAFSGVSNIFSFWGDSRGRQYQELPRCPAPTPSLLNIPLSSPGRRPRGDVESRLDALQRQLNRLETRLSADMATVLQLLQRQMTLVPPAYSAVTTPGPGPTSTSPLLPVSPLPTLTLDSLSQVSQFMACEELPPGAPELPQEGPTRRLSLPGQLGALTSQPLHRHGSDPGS

**Q.** Which results are given for `COc1c(OCCCCCCC(=O)O)cc2oc3cc4c(c(O)c3c(=O)c2c1CC=C(C)C)C=CC(C)(C)O4`?
**A.** half-life at 0.5 µM [1]: 2.8 h; IC50 [2]: > 30 µM; Activity [3]: Active; Tmax [4]: 4.98 min; IC50 [5]: 0.009 µM; IC50 [6]: > 10 µM; IC50 [7]: > 10 µM; IC50 [8]: > 10 µM; IC50 [9]: 0.62 µM; IC50 [10]: > 10 µM; IC50 [11]: > 10 µM; IC50 [12]: > 10 µM; Ratio IC50 [13]: > 580; Ratio IC50 [14]: > 580; Ratio IC50 [15]: > 580; Ratio IC50 [16]: 199; Ratio IC50 [17]: 36; Ratio IC50 [18]: > 580; Activity [19]: 0%; AUC(0-inf) [20]: 6710 ng·h/mL; Tmax [21]: 4.67 h; Cmax [22]: 661 ng/mL; AUC(0-t) at 24 h [23]: 4740 ng·h/mL; IC50 [24]: > 10 µM; IC50 [25]: > 10 µM; fraction unbound at 1 µM [26]: 0.01; Activity [27]: Active; Activity [28]: Active; Activity [29]: Active; inhibition [30]: 60%
